We go through 1 compound from patent US9738614B2, “Malignant and non-malignant disease treatment with Ras antagonists” (PISCES THERAPEUTICS, LLC, priority 2011, dated 2017).

Structures are written as SMILES. Like-named read-outs stand apart in the source and are kept apart here.

In data set [1] the test system is ECC1 cells. The experiment in a line: IC50 assay with ECC1 endometrial cancer cells. To be noted: Homo sapiens, ECC-1, 1 to 50 μM, read-out: half-maximal inhibition of viability. It is filed as cell-based. The protocol: (§1) U87MG cells were seeded in a 24-well plate, 5000 cells per well, and incubated overnight at 37° C. in serum-free media. The next day they were treated in triplicate with 50 and 100 μM of each test compound (1), (2), (3), (4), and (5) and the reference compound FTS. After five days, the cells were trypsinized (0.5%), stained with trypan blue, and counted to determine the cell number per well. The half-maximal inhibitory concentration (IC50) values were calculated using Multiplex Reader-Fit software made by MiraiBio Group, Hitachi Solutions America, Ltd. In a typical experiment, the control wells averaged 138,000 cells. The results are presented graphically in FIG. 1. The test compounds at 50 μM allowed the following U87MG cell proliferation compared to control: compound (1)—37%, compound (2)—18%, compound (3)—10%, compound (4)—40%, and compound (5)—0%. The reference compound FTS at 50 μM allowed 7% cell proliferation compared to control.
(§2) ECC1 (well differentiated) and USPC1 (poorly differentiated) endometrial cancer cells were subjected to IC50 assays similar to Example 6 above. The cells were grown in concentrations of compound (5) ranging from 1 to 50 μM.

Data set [2] has as its system USPC1 cells. Put plainly: IC50 assay with USPC1 endometrial cancer cells. It is filed as cell-based. Conditions: 1 to 50 μM, read-out: half-maximal inhibition of viability. The method, then: as §1, §2
Data set [3] concerns EJ cells. Put plainly: IC50 assay with EJ bladder cancer cells. It is filed as cell-based. Conditions: Homo sapiens, 1.5 to 25 μM, read-out: half-maximal inhibition of viability. The method, then:
as §1
EJ bladder cancer cells, which harbor a H-Ras mutation, were subjected to an IC50 assay similar to Example 6 above. EJ cells were grown in concentrations of compound (5) ranging from 1.5 to 25 μM.

Data set [4] deals with hematopoietic progenitor cells (cord blood low density cells). Put plainly: Human hematopoietic progenitor cell toxicity (colony assay). It is filed as cell-based. To be noted: 12 days; 25 and 2.5 μM for compound (3), 2.5 and 0.25 μM for compound (5). The method, then: Cord blood low density cells were plated at 1×10^5 cells per plate in 1 mL complete methylcellulose in the presence of each test compound (3) and (5) and incubated for 12 days in a CO2 incubator. Colony-forming unit-granulocyte (CFU-GM), burst-forming unit-erythroid (BFU-E), and mixed colonies were counted under an inverted microscope. […] The test compounds were not toxic to the hematopoietic progenitor cells.

Data set [5] has as its system primary human lung fibroblasts. The experiment in a line: Inhibition of TGF-β induced myofibroblast formation (α-SMA Western blot). It is filed as cell-based. Conditions: Homo sapiens, Fibroblast, TGF-β 72 hours, 0.5 to 2 μM. The method, then:
Primary human lung fibroblasts were stimulated for 72 hours with transforming growth factor beta (TGF-β) to induce their differentiation to an alpha smooth muscle actin (α-SMA) expressing activated myofibroblasts cell fate. […] The activin like kinase receptor (ALK5) inhibitor SB431542 was used as a positive control. Myofibroblast formation was evaluated by Western blot by examining changes in α-SMA levels.

Data set [6] has as its system MCF-7 cells. The experiment in a line: IC50 assay with MCF-7 breast cancer cells. It is filed as cell-based. Conditions: Homo sapiens, MCF7, 0.6 to 10 μM, read-out: half-maximal decrease in viability. The method, then:
as §1
MCF-7 breast cancer cells, which harbor an activating “K-Ras variant” mutation, were subjected to an IC50 assay similar to Example 6 above. This “K-Ras variant” mutation is in a site that a microRNA binds to, destabilizing the mRNA that encodes Ras. […] MCF-7 cells were grown in concentrations of compound (5) ranging from 0.6 to 10 μM.

The subject of data set [7] is JW16 cells. Put plainly: IC50 assay with JW16 mouse MPNST cells. It is filed as cell-based. Conditions: 0.5 to 20 μM, read-out: half-maximal effect on viability. The protocol:
as §1
(§3) Mouse models of NF-1 related MPNST have been made. Cells from two such mice, JW16 and JW19, have been isolated and propagated. The JW16 and JW19 cells were subjected to IC50 assays similar to Example 6 above.

In data set [8] the test system is NF-1+/- mast cells. The experiment in a line: NF-1+/- mast cell proliferation (3H-thymidine incorporation). It is filed as cell-based. To be noted: 0-12.5 μM, 24 hours after SCF stimulation (FIG. 4B). The protocol: (§4) Purified populations of NF-1+/−mast cells were stimulated with a maximum stimulating concentration of stem cell factor (SCF) in the presence of a control or compound (5) at concentrations of 10-15 μM. The activated, GTP-bound form of Ras (Ras-GTP) was measured 3 minutes subsequently using Western blot analysis. […] In parallel experiments, mast cell proliferation was measured using 3H-thymidine incorporation 24 hours after SCF stimulation in the presence of a control or compound (5) at concentrations of 0-12.5 μM. […] Each asterisk in FIG. 4B represents a statistical difference relative to the control using analysis of variance. (Yang, Feng-Chun, et. al. J Clin Invest 2003, 112(12), 1851-1861; Yang, Feng-Chun, et. al. Hum Mol Genet 2006, 15(11), 1921-1930).
On the technique in general: Dividing cells build labelled thymidine or BrdU into new DNA.

Data set [9] has as its system JW19 cells. The experiment in a line: IC50 assay with JW19 mouse MPNST cells. Conditions: 0.5 to 20 μM, read-out: half-maximal effect on viability. It is filed as cell-based. The method, then: as §1, §3
The subject of data set [10] is GBM6 cells. The experiment in a line: IC50 assay with GBM6 glioblastoma cells. It is filed as cell-based. To be noted: Homo sapiens, 1 to 5 μM, read-out: half-maximal effect on cell viability. The method, then: as §1
An IC50 assay similar to Example 6 above was performed with GBM6 cells prepared from minced, freshly harvested tumor tissue. GBM6 cells were grown in the presence of compound (5) at concentrations ranging from 1 to 5 μM.

For data set [11], the system named is activated, GTP-bound form of Ras (Ras-GTP). Put plainly: Ras-GTP Western blot in SCF-stimulated NF-1+/- mast cells. It is filed as cell-based. Conditions: 10-15 μM, 3 minutes after SCF stimulation (FIG. 4A). The protocol: as §4
A general note: Immunoblotting shows a protein as a band on a membrane.

The subject of data set [12] is sNF94.3 cells. The experiment in a line: IC50 assay with sNF94.3 MPNST cells. It is filed as cell-based. Conditions: Homo sapiens, 0.5 to 20 μM, read-out: half-maximal effect on viability. The protocol:
as §1
Two additional MPNST cell lines, sNF94.3 and sNFO2.2, were subjected to IC50 assays similar to Examples 6 and 11 above. Like the ST88-14 cells from Example 11, the sNF94.3 and sNFO2.2 cells came from NF-1 patients too.

The subject of data set [13] is ST88-14 cells. The experiment in a line: IC50 assay with ST88-14 MPNST cells. It is filed as cell-based, human. To be noted: 0.1 to 50 μM, two separate experiments, read-out: half-maximal effects on cell viability. The protocol:
as §1
IC50 assays similar to Example 6 above were performed with ST88-14 cells derived from a MPNST removed from a patient who had NF-1. The cells have loss-of-function mutations in both copies of the NF-1 gene, neurofibromin, which is discussed further above. ST88-14 cells were grown in concentrations of compound (5) ranging from 0.1 to 50 μM in two separate experiments. […]

A word on the EC50: it is the concentration needed to bring the measured effect to its halfway point. Low readings indicate higher potency in that assay, high ones lower potency in that assay. For the compound `CC(C)=CCC/C(C)=C/CC/C(C)=C/CSc1ccccc1C1=NCCN1` [compound (5), 2-(2-{[(2E,6E)-3,7,11-trimethyldodeca-2,6,10-trien-1-yl]sulfanyl}phenyl)-4,5-dihydro-1H-imidazole], the IC50 was 4000 nM in data set [1]; 2000 nM in data set [2]; 2500 nM in data set [3]; 2000 nM in [6]; 2200 nM in data set [7]; 4000 nM in data set [9]. Also, the IC50 in data set [10] came to 3500 nM; in [12], 2700 nM; in [13] (Homo sapiens, ST88-14, ST88-14 cells), 5500 nM; in data set [13] (ST88-14 cells) it was 6600 nM. Also, the “toxicity to hematopoietic progenitor cells (CFU-GM, BFU-E, mixed colonies)” value in [4] is “not toxic”. Also, the EC50 in data set [5] was about 1000 nM. Also, the “mast cell proliferation relative to the control” value in data set [8] is “reduced”. In addition, the “level of Ras-GTP relative to the control” value in data set [11] was “significantly reduced”.
